This is an account of results in patent US20100008983A1 (priority 2008, published 2010).

Structures are written as SMILES. Counter-ions that a name gives are not always drawn. Like-named read-outs stand apart in the source and are kept apart here.

For this data set the following is noted: stirring.

Turning to `C#CCN[C@@H]1CCc2ccccc21` [Rasagiline mesylate, R(+)-N-propargyl-1-aminoindan], the “Solubility (Observation: amount soluble, clear solution)” value is, setting by setting: (Capmul MCM (glyceryl mono- & dicaprate), RT) 64 mg/g soluble,; (Cremophor EL (polyoxyethylene castor oil derivative), RT) 25 mg/g soluble,; (Ethanol, RT) 66.6 mg/g soluble,; (Labrasol (Caprylocaproyl macrogol-8 glyceride), 37-40° C.) 10 mg/g soluble,; (Polyethylene Glycol 400, RT) 25 mg/g soluble,; (Propylene Glycol, RT) 25 mg/g soluble,. Further, the “Solubility (Observation: amount soluble, clear solution)” value is reported as 25 mg/g soluble, (Transcutol (2-(2-ethoxyethoxy)ethanol), RT) and 10 mg/g soluble, (Tween 80 (polyoxyethylene sorbitan fatty acid esters), RT). Besides, the “Solubility (Observation)” value by setting is: (Gelucire 44/14 (Lauroyl macrogol-32 glyceride), 45-50° C.) “Not soluble”; (Labrafil M 1944 CS (polyoxyethylated glycolysed glycerides), 37° C.) “Not soluble”; (Labrafil M 1944 CS (polyoxyethylated glycolysed glycerides), RT) “Not soluble”; (Miglyol 810 (Caprylic/Capric Triglyceride), 37° C.) “Not soluble”; (Miglyol 810 (Caprylic/Capric Triglyceride), RT) “Not soluble”; (Soybean oil, 37° C.) “Not soluble”. The “Solubility (Observation)” value (Soybean oil, RT) is listed as “Not soluble”.
